Holding throughout (format): functional
Assay [1] in a line: Antioxidant activity assessed as hydrogen peroxide radical scavenging activity.
For assay [2], the system named is Radical scavenging activity. Put plainly: Antioxidant activity assessed as DPPH radical scavenging activity. (The DPPH test is a chemical assay of radical scavenging.)
Assay [3] in a line: Antioxidant activity assessed as ABTS radical scavenging activity.
Assay [4] can be described thus: Antioxidant activity assessed as superoxide anion scavenging activity by NBT reduction assay.
A short description of assay [5]: Antioxidant activity assessed as DMPD radical scavenging activity.

In brackets after ≈: the same amount, converted by molar mass.

One may read the IC50 as the concentration that inhibits the measured activity by half. Take `COc1cc2c(c(OC)c1)-c1[nH]c3ccccc3c1C2`: the IC50 in assay [1] was 3.35 µg/mL (≈ 12.6 µM); in assay [2], 33.31 µg/mL (≈ 126 µM); in assay [3], 23.04 µg/mL (≈ 86.8 µM); in assay [4], 20.43 µg/mL (≈ 77 µM); in assay [5] it was 60.46 µg/mL (≈ 228 µM).
In the same order, the values of `COc1ccc2c(c1)-c1[nH]c3ccccc3c1C2` are 7.02 µg/mL (≈ 29.8 µM), 48.57 µg/mL (≈ 206 µM), 54.15 µg/mL (≈ 230 µM), 19.86 µg/mL (≈ 84.4 µM) and 15.01 µg/mL (≈ 63.8 µM).
With `Oc1ccc(O)c2c1Cc1c-2[nH]c2ccccc12`, the IC50 in assay [1] turned out to be 3.28 µg/mL (≈ 13.8 µM); in assay [2], 11.92 µg/mL (≈ 50.2 µM); in assay [3] it was 21.56 µg/mL (≈ 90.9 µM); in assay [4], 15.49 µg/mL (≈ 65.3 µM); in assay [5] it was 22.2 µg/mL (≈ 93.6 µM).
For `Brc1ccc2c(c1)Cc1c-2[nH]c2ccccc12`, the IC50 in assay [1] came out at 8.47 µg/mL (≈ 29.8 µM); in assay [2], 64.12 µg/mL (≈ 226 µM); in assay [3], 63.63 µg/mL (≈ 224 µM); in assay [4], 14.39 µg/mL (≈ 50.6 µM); in assay [5] it was 15.34 µg/mL (≈ 54 µM).
Consider `Fc1ccc2c(c1)Cc1c-2[nH]c2ccccc12`, for which the IC50 in assay [1] was found to be 4.41 µg/mL (≈ 19.8 µM); in assay [2] it was 49.73 µg/mL (≈ 223 µM); in assay [3], 39.1 µg/mL (≈ 175 µM); in assay [4] it was 16.49 µg/mL (≈ 73.9 µM); in assay [5], 31.47 µg/mL (≈ 141 µM).
As to `Oc1ccc2c(c1)Cc1c-2[nH]c2ccccc12`, the 50% inhibitory concentration (IC50) in assay [1] stood at 4.47 µg/mL (≈ 20.2 µM); in assay [2] it was 11.67 µg/mL (≈ 52.7 µM); in assay [3], 39.85 µg/mL (≈ 180 µM); in assay [4] it was 26.61 µg/mL (≈ 120 µM); in assay [5], 130.07 µg/mL (≈ 588 µM).
In the case of `COc1ccc(OC)c2c1Cc1c-2[nH]c2ccccc12`, the IC50 came to 3.92 µg/mL (≈ 14.8 µM) in assay [1]; 51.67 µg/mL (≈ 195 µM) in assay [2]; 32.76 µg/mL (≈ 123 µM) in assay [3]; 15.75 µg/mL (≈ 59.4 µM) in assay [4]; 24.87 µg/mL (≈ 93.7 µM) in assay [5].
With `Oc1cc2c(cc1O)-c1[nH]c3ccccc3c1C2`, the IC50 in assay [1] was 5.09 µg/mL (≈ 21.5 µM); in assay [2], 29.44 µg/mL (≈ 124 µM); in assay [3], 45.98 µg/mL (≈ 194 µM); in assay [4] it was 14.1 µg/mL (≈ 59.4 µM); in assay [5], 76.58 µg/mL (≈ 323 µM).
In the same order, the values of `Clc1ccc2c(c1)Cc1c-2[nH]c2ccccc12` are 30.52 µg/mL (≈ 127 µM), 44.18 µg/mL (≈ 184 µM), 82.87 µg/mL (≈ 346 µM), 16.2 µg/mL (≈ 67.6 µM) and 57.89 µg/mL (≈ 242 µM).
For `c1ccc2c(c1)Cc1c-2[nH]c2ccccc12`, the IC50 in assay [1] stood at 7.14 µg/mL (≈ 34.8 µM); in assay [2], 65.91 µg/mL (≈ 321 µM); in assay [3], 58.66 µg/mL (≈ 286 µM); in assay [4], 12.64 µg/mL (≈ 61.6 µM); in assay [5], 32.92 µg/mL (≈ 160 µM).
Turning to `Oc1cccc2c1-c1[nH]c3ccccc3c1C2`, the IC50 in assay [1] worked out at 2.8 µg/mL (≈ 12.7 µM); in assay [2], 10.12 µg/mL (≈ 45.7 µM); in assay [3] it was 9.72 µg/mL (≈ 43.9 µM); in assay [4], 21.69 µg/mL (≈ 98 µM); in assay [5], 127.21 µg/mL (≈ 575 µM).
`Oc1ccc2c(c1O)Cc1c-2[nH]c2ccccc12`: the IC50 amounted to 3.16 µg/mL (≈ 13.3 µM) in assay [1]; 9.47 µg/mL (≈ 39.9 µM) in assay [2]; 79.02 µg/mL (≈ 333 µM) in assay [3]; 31.14 µg/mL (≈ 131 µM) in assay [4]; 34.79 µg/mL (≈ 147 µM) in assay [5].
As to `COc1cccc2c1Cc1c-2[nH]c2ccccc12`, the IC50 in assay [1] was determined as 3.74 µg/mL (≈ 15.9 µM); in assay [2], 38.16 µg/mL (≈ 162 µM); in assay [3] it was 29.91 µg/mL (≈ 127 µM); in assay [4], 21.99 µg/mL (≈ 93.5 µM); in assay [5] it was 28.5 µg/mL (≈ 121 µM).
As for `Oc1cc(O)c2c(c1)Cc1c-2[nH]c2ccccc12`, the IC50 turned out to be 5.47 µg/mL (≈ 23.1 µM) in assay [1]; 72.89 µg/mL (≈ 307 µM) in assay [2]; 49.04 µg/mL (≈ 207 µM) in assay [3]; 11.46 µg/mL (≈ 48.3 µM) in assay [4]; 39.38 µg/mL (≈ 166 µM) in assay [5].
The corresponding values for `COc1ccc2c(c1OC)Cc1c-2[nH]c2ccccc12` are 25.43 µg/mL (≈ 95.8 µM), 33.16 µg/mL (≈ 125 µM), 81.39 µg/mL (≈ 307 µM), 12.42 µg/mL (≈ 46.8 µM) and 46.44 µg/mL (≈ 175 µM).
For the compound `c1ccc2c3c([nH]c2c1)-c1cc2c(cc1C3)OCO2`, the IC50 in assay [1] was found to be 3.39 µg/mL (≈ 13.6 µM); in assay [2], 13.07 µg/mL (≈ 52.4 µM); in assay [3], 23.67 µg/mL (≈ 95 µM); in assay [4], 16.11 µg/mL (≈ 64.6 µM); in assay [5], 18.62 µg/mL (≈ 74.7 µM).
In the case of `Oc1cccc2c1Cc1c-2[nH]c2ccccc12`, the IC50 in assay [1] stood at 8.82 µg/mL (≈ 39.9 µM); in assay [2] it was 36.27 µg/mL (≈ 164 µM); in assay [3], 64.69 µg/mL (≈ 292 µM); in assay [4], 18.67 µg/mL (≈ 84.4 µM); in assay [5] it was 26.75 µg/mL (≈ 121 µM).
Turning to `COc1ccc2c(c1)Cc1c-2[nH]c2ccccc12`, the concentration for half-maximal inhibition (IC50) in assay [1] came to 9.08 µg/mL (≈ 38.6 µM); in assay [2] it was 37.79 µg/mL (≈ 161 µM); in assay [3] it was 68.03 µg/mL (≈ 289 µM); in assay [4], 24.37 µg/mL (≈ 104 µM); in assay [5], 17.45 µg/mL (≈ 74.2 µM).
In the same order, the values of `COc1cc2c(cc1OC)-c1[nH]c3ccccc3c1C2` are 13.86 µg/mL (≈ 52.2 µM), 25.76 µg/mL (≈ 97.1 µM), 73.99 µg/mL (≈ 279 µM), 17.09 µg/mL (≈ 64.4 µM) and 52.83 µg/mL (≈ 199 µM).
The corresponding values for `Oc1ccc2c(c1)-c1[nH]c3ccccc3c1C2` are 3.25 µg/mL (≈ 14.7 µM), 27.4 µg/mL (≈ 124 µM), 20.71 µg/mL (≈ 93.6 µM), 18.55 µg/mL (≈ 83.8 µM) and 14.76 µg/mL (≈ 66.7 µM).
Regarding `Cc1c(C)c2c(c(C)c1O)CC[C@@](C)(CCC[C@H](C)CCC[C@H](C)CCCC(C)C)O2` [ALPHA-TOCOPHEROL], the IC50 in assay [1] was found to be 11.82 µg/mL (≈ 27.4 µM); in assay [2] it was 13.41 µg/mL (≈ 31.1 µM); in assay [3], 73.15 µg/mL (≈ 170 µM); in assay [4], 33.17 µg/mL (≈ 77 µM).
On to `COc1ccc(O)c(C(C)(C)C)c1.COc1ccc(O)cc1C(C)(C)C` [BUTYLATED HYDROXYANISOLE], for which the IC50 in assay [1] was 2.65 µg/mL; in assay [2] it was 16.67 µg/mL; in assay [3] it was 4.65 µg/mL; in assay [4], 68.82 µg/mL; in assay [5], 32.92 µg/mL.
On to `Cc1cc(C(C)(C)C)c(O)c(C(C)(C)C)c1` [BUTYLATED HYDROXYTOLUENE], for which the IC50 in assay [1] was found to be 5.97 µg/mL (≈ 27.1 µM); in assay [2], 42.91 µg/mL (≈ 195 µM); in assay [3] it was 52.81 µg/mL (≈ 240 µM); in assay [4], 49.48 µg/mL (≈ 225 µM); in assay [5], 17.45 µg/mL (≈ 79.2 µM).
For `Cc1c(C)c2c(c(C)c1O)CCC(C)(C(=O)O)O2` (stereo not drawn) [TROLOX], the IC50 is 8.06 µg/mL (≈ 32.2 µM) in assay [1], 10.03 µg/mL (≈ 40.1 µM) in assay [2], 62.32 µg/mL (≈ 249 µM) in assay [3] and 195.11 µg/mL (≈ 780 µM) in assay [5].

Values taken from ChEMBL document CHEMBL1152559, “Antioxidant activity of 5,10-dihydroindeno[1,2-b]indoles containing substituents on dihydroindeno part” (Bioorg Med Chem, 2009).
